# Patent US20160229839A1, “Factor XIa Inhibitors” (Merck Sharp & Dohme Corp., priority 2013, published 2016)
# Biological target: T1, purified human Factor XIa (Homo sapiens, UniProt P03951)
# T1 construct: purified human Factor XIa; purchased Sekisui Diagnostics
# Assay: Factor XIa Assay (fluorogenic substrate Z-Gly-Pro-Arg-AFC)
# Type: biochemical
# Settings: purified human Factor XIa 40 pM; Z-Gly-Pro-Arg-AFC 100 μM; 50 mM HEPES pH 7.4; read-out: hFXIa Ki (nM), Factor XIa inhibition
# Method: The effectiveness of compound of the present invention as inhibitors of Coagulation Factor XIa can be determined using a relevant purified serine protease, and an appropriate synthetic substrate. The rate of hydrolysis of the chromogenic or fluorogenic substrate by the relevant serine protease was measured both in the absence and presence of compounds of the present invention. Assays were conducted at room temperature or at 37° C. […] A decrease in the rate of fluorescence change in the presence of inhibitor is indicative of enzyme inhibition. Such methods are known to one skilled in the art. The results of this assay are expressed as the inhibitory constant, Ki.
# Factor XIa determinations were made in 50 mM HEPES buffer at pH 7.4 containing 150 mM NaCl, 5 mM CaCl2, and 0.1% PEG 8000 (polyethylene glycol; J T Baker or Fisher Scientific). Determinations were made using purified human Factor XIa at a final concentration of 40 pM (Sekisui Diagnostics) and he synthetic substrate, Z-Gly-Pro-Arg-AFC, TFA salt (Sigma #C0980) at a concentration of 100 μM.
# Activity assays were performed by diluting a stock solution of substrate at least tenfold to a final concentration ≦0.1 Km into a solution containing enzyme or enzyme equilibrated with inhibitor. Times required to achieve equilibration between enzyme and inhibitor were determined in control experiments. Initial velocities of product formation in the absence (Vo) or presence of inhibitor (Vi) were measured. Assuming competitive inhibition, and that unity is negligible compared Km/[S], [I]/e, and [I]/e (where [S], [I], and e respectively represent the total concentrations, of substrate, inhibitor and enzyme), the equilibrium constant (Ki) for dissociation of the inhibitor from the enzyme can be obtained from the dependence of Vo/Vi on [I] shown in the following equation.
# T1 sequence (P03951 388-625 limits assumed): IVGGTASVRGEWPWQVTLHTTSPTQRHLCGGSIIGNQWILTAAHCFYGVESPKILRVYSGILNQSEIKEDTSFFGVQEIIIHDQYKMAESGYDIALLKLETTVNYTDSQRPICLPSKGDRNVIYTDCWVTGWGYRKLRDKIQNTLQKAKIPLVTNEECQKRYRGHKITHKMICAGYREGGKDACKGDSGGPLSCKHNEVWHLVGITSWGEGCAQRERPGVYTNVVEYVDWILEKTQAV
# T1 sequence (P03951 19-387 partner limits assumed): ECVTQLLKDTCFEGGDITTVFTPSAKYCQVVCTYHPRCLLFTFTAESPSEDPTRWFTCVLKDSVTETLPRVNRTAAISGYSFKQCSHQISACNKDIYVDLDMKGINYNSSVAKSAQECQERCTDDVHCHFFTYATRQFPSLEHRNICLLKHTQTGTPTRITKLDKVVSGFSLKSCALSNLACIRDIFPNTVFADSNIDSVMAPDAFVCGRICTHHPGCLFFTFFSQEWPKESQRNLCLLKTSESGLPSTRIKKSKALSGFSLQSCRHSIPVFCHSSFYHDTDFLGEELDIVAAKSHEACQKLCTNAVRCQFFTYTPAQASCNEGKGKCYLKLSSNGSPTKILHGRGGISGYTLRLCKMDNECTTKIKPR
row,Ki [nM],Structure (SMILES)
1,19.3,"O=C(O)c1cccc(-c2c[nH]c([C@@H]3[C@H](c4ccccc4)CCCN3C(=O)/C=C/c3cc(Cl)ccc3-n3cnnn3)n2)c1 (single isomer, unassigned) [Example 1-69]"
2,56.9,"O=C(O)c1cccc(-c2c[nH]c(C3C(c4ccccc4)CCCN3C(=O)/C=C/c3cc(Cl)ccc3-n3cnnn3)n2)c1 (centres unmarked) [Example 1-58, (E)-3-(2-(1-(3-(5-chloro-2-(1H-tetrazol-1-yl)phenyl)acryloyl)-3-phenylpiperidin-2-yl)-1H-imidazol-4-yl)benzoic acid]"
3,8510,"N#Cc1ccc(-c2c[nH]c(C3C(c4ccccc4)CCCN3C(=O)CCc3cc(Cl)ccc3-n3cnnn3)n2)cc1 (centres unmarked) [Example 1-24, 4-(2-(1-(3-(5-chloro-2-(1H-tetrazol-1-yl)phenyl)propanoyl)-3-phenylpiperidin-2-yl)-1H-imidazol-4-yl)benzonitrile]"
4,> 10000,"O=C1Cc2cc(-c3cnc([C@H]4[C@@H](c5ccccc5)CCCN4C(=O)/C=C/c4cc(Cl)ccc4-n4cnnn4)[nH]3)ccc2N1 [Example 1-62, 2-((2R,3R)-1-((E)-3-(5-chloro-2-(1H-tetrazol-1-yl)phenyl)acryloyl)-3-phenylpiperidin-2-yl)-5-(2-oxoindolin-5-yl)-1H-imidazol-3-ium 2,2,2-trifluoroacetate]"
5,619,"N[C@H]1CCc2cc(C(=O)N3CCCC(c4ccccc4)C3C(=O)Nc3ccc(C(=O)O)cc3)ccc21 (stereo partly drawn) [Example 1-16, 4-(1-((S)-1-amino-2,3-dihydro-1H-indene-5-carbonyl)-3-phenylpiperidine-2-carboxamido)benzoic acid]"
6,25.3,"O=C(O)c1ccc(NC(=O)C2C(c3ccc(F)cc3)CCCN2C(=O)/C=C/c2cc(Cl)ccc2-n2cnnn2)cc1 (centres unmarked) [Example 1-18, ammonium (E)-4-(1-(3-(5-chloro-2-(1H-tetrazol-1-yl)phenyl)acryloyl)-3-(4-fluorophenyl)piperidine-2-carboxamido)benzoate]"
7,57.1,"O=C(O)c1ccc(NC(=O)C2C(c3ccccc3)CCCN2C(=O)CCc2cc(Cl)ccc2-n2cnnn2)cc1 (centres unmarked) [Example 1-9, 4-(1-(3-(5-chloro-2-(1H-tetrazol-1-yl)phenyl)propanoyl)-3-phenylpiperidine-2-carboxamido)benzoic acid]"
8,> 10000,"O=C(/C=C/c1cc(Cl)ccc1-n1cnnn1)N1CCCC(c2ccccc2)C1c1nc(-c2ccc(C(F)(F)F)cc2)c[nH]1 (centres unmarked) [Example 1-30, (E)-3-(5-chloro-2-(1H-tetrazol-1-yl)phenyl)-1-(3-phenyl-2-(4-(4-(trifluoromethyl)phenyl)-1H-imidazol-2-yl)piperidin-1-yl)prop-2-en-1-one]"
9,> 10000,"O=C(/C=C/c1cc(Cl)ccc1-n1cnnn1)N1CCCC(c2ccccc2)C1c1nc(-c2ccc3[nH]c(=O)oc3c2)c[nH]1 (centres unmarked) [Example 1-53, (E)-6-(2-(1-(3-(5-chloro-2-(1H-tetrazol-1-yl)phenyl)acryloyl)-3-phenylpiperidin-2-yl)-1H-imidazol-4-yl)benzo[d]oxazol-2(3H)-one]"
10,51.5,"Cc1cc(C2CCCN(C(=O)/C=C/c3cc(Cl)ccc3-n3cnnn3)C2C(=O)Nc2ccc(C(=O)O)cc2)ccc1F (centres unmarked) [Example 1-37, (E)-4-(1-(3-(5-chloro-2-(1H-tetrazol-1-yl)phenyl)acryloyl)-3-(4-fluoro-3-methylphenyl)piperidine-2-carboxamido)benzoic acid]"
11,207,"O=C1Cc2cc(-c3cnc([C@@H]4[C@H](c5ccccc5)CCCN4C(=O)/C=C/c4cc(Cl)ccc4-n4cnnn4)[nH]3)ccc2N1 [Example 1-63, 5-(2-((2S,3S)-1-((E)-3-(5-chloro-2-(1H-tetrazol-1-yl)phenyl)acryloyl)-3-phenylpiperidin-2-yl)-1H-imidazol-5-yl)indolin-2-one]"
12,24.9,"O=C(/C=C/c1cc(Cl)ccc1-n1cnnn1)Nc1ccc(C2CCCN(C(=O)/C=C/c3cc(Cl)ccc3-n3cnnn3)C2C(=O)Nc2ccc(C(=O)O)cc2)cc1 (centres unmarked) [Example 1-34, 4-(3-(4-((E)-3-(5-chloro-2-(1H-tetrazol-1-yl)phenyl)acrylamido)phenyl)-1-((E)-3-(5-chloro-2-(1H-tetrazol-1-yl)phenyl)acryloyl)piperidine-2-carboxamido)benzoic acid]"
13,237,"O=C(/C=C/c1cc(Cl)ccc1-n1cnnn1)N1CCCC(c2ccccc2)C1c1nc(-c2ccncc2)c[nH]1 (centres unmarked) [Example 1-42, (E)-3-(5-chloro-2-(1H-tetrazol-1-yl)phenyl)-1-(3-phenyl-2-(4-(pyridin-4-yl)-1H-imidazol-2-yl)piperidin-1-yl)prop-2-en-1-one]"
14,145,"O=C(Nc1ccc2[nH]ncc2c1)C1C(c2ccccc2)CCCN1C(=O)/C=C/c1cc(Cl)ccc1-n1cnnn1 (centres unmarked) [Example 1-60, (E)-1-(3-(5-chloro-2-(1H-tetrazol-1-yl)phenyl)acryloyl)-N-(1H-indazol-5-yl)-3-phenylpiperidine-2-carboxamide]"
15,5730,"O=C(O)c1cccc(-c2c[nH]c([C@H]3[C@@H](c4ccccc4)CCCN3C(=O)/C=C/c3cc(Cl)ccc3-n3cnnn3)n2)c1 (single isomer, unassigned) [Example 1-70]"
16,13.9,"O=C(Nc1ccc2[nH]ncc2c1)C1C(c2ccccc2)CCCN1C(=O)/C=C/c1cc(Cl)ccc1-n1cnnn1 (centres unmarked) [Example 1-59, (E)-1-(3-(5-chloro-2-(1H-tetrazol-1-yl)phenyl)acryloyl)-N-(1H-indazol-5-yl)-3-phenylpiperidine-2-carboxamide]"
17,> 10000,"COC(=O)Nc1ccc(-c2nc([C@H]3[C@@H](c4ccccc4)CCCN3C(=O)/C=C/c3cc(Cl)ccc3-n3cnnn3)[nH]c2Cl)cc1 [Example 1-64, methyl (4-(5-chloro-2-((2R,3R)-1-((E)-3-(5-chloro-2-(1H-tetrazol-1-yl)phenyl)acryloyl)-3-phenylpiperidin-2-yl)-1H-imidazol-4-yl)phenyl)carbamate]"
18,627,"NCc1ccc(C(=O)N2CCCC(c3ccccc3)C2C(=O)Nc2ccc(C(=O)O)cc2)cc1 (centres unmarked) [Example 1-20, (4-(2-((4-carboxyphenyl)carbamoyl)-3-phenylpiperidine-1-carbonyl)phenyl)methanaminium 2,2,2-trifluoroacetate]"
19,31.4,"O=C(Nc1ccc2[nH]ncc2c1)[C@@H]1[C@H](c2ccccc2)CCCN1C(=O)/C=C/c1cc(Cl)ccc1-n1cnnn1 [Example 1-65, (2S,3S)-1-((E)-3-(5-chloro-2-(1H-tetrazol-1-yl)phenyl)acryloyl)-N-(1H-indazol-5-yl)-3-phenylpiperidine-2-carboxamide]"
20,428,"O=C(/C=C/c1cc(Cl)ccc1-n1cnnn1)N1CCC[C@@H](c2ccccc2)[C@H]1c1nc2cc(F)ccc2[nH]1 [Example 1-68, (E)-3-(5-chloro-2-(1H-tetrazol-1-yl)phenyl)-1-((2S,3S)-2-(5-fluoro-1H-benzo[d]imidazol-2-yl)-3-phenylpiperidin-1-yl)prop-2-en-1-one]"
21,> 10000,"COC(=O)c1ccc(-c2c[nH]c(C3C(c4ccccc4)CCCN3C(=O)/C=C/c3cc(Cl)ccc3-n3cnnn3)n2)cc1 (centres unmarked) [Example 1-40, (E)-methyl 4-(2-(1-(3-(5-chloro-2-(1H-tetrazol-1-yl)phenyl)acryloyl)-3-phenylpiperidin-2-yl)-1H-imidazol-4-yl)benzoate]"
22,916,"NCC1CCC(C(=O)N2CCCC(c3ccccc3)C2C(=O)Nc2ccc(C(=O)O)cc2)CC1 (centres unmarked) [Example 1-49, 4-(1-(4-(aminomethyl)cyclohexanecarbonyl)-3-phenylpiperidine-2-carboxamido)benzoic acid]"
23,> 10000,"O=C(/C=C/c1cc(Cl)ccc1-n1cnnn1)N1CCCC(c2ccccc2)C1c1nc(-c2ccc(F)cc2)c[nH]1 (centres unmarked) [Example 1-13, (E)-3-(5-chloro-2-(1H-tetrazol-1-yl)phenyl)-1-(2-(4-(4-fluorophenyl)-1H-imidazol-2-yl)-3-phenylpiperidin-1-yl)prop-2-en-1-one]"
24,> 10000,"COC(=O)Nc1ccc(-c2c[nH]c(C3C(c4ccccc4)CCCN3C(=O)/C=C/c3cc(Cl)ccc3-n3cnnn3)n2)cc1 (centres unmarked) [Example 1-47, (E)-methyl (4-(2-(1-(3-(5-chloro-2-(1H-tetrazol-1-yl)phenyl)acryloyl)-3-phenylpiperidin-2-yl)-1H-imidazol-4-yl)phenyl)carbamate]"
25,> 10000,"CC(C)(C)OC(=O)c1ccc(NC(=O)C2C(c3ccccc3)CCCN2C(=O)/C=C/c2cc(Cl)ccc2-n2cnnn2)cc1 (racemic) [Example 1-1, (E)-tert-butyl 4-(1-(3-(5-chloro-2-(1H-tetrazol-1-yl)phenyl)acryloyl)-3-phenylpiperidine-2-carboxamido)benzoate]"
26,36.2,"NC(=O)c1ccc(C2CCCN(C(=O)/C=C/c3cc(Cl)ccc3-n3cnnn3)C2C(=O)Nc2ccc(C(=O)O)cc2)cc1 (centres unmarked) [Example 1-36, (E)-4-(3-(4-carbamoylphenyl)-1-(3-(5-chloro-2-(1H-tetrazol-1-yl)phenyl)acryloyl)piperidine-2-carboxamido)benzoic acid]"
